Patent publication US11780845B2 (Relay Therapeutics, Inc., priority 2019, dated 2023)

The molecules below were run on SNU-16 (assay: Cell SNU-16 assay). Details: Homo sapiens, SNU-16, SNU-16 cells.
Assay type: cell-based

Compound	IC50
C#Cc1cc(C)c(-c2[nH]c3ncnc(N)c3c2-c2ccc(Oc3nccc(C)n3)cc2)cn1 [Example 1130]	0.25 to 1 µM
C=C(C)C(=O)Nc1ccc(-c2c(C3=CC[C@@H](C(=O)N4CCC[C@H]4COC)CC3)c3c(N)ncnc3n2C)cc1 (single isomer, unassigned) [Example 981]	0.25 to 1 µM
CC#Cc1ncc(-c2c(-c3ccc(Oc4nccc(C)n4)cc3)c3c(N)ncnc3n2C)cn1 [Example 1070]	≤ 0.1 µM
C#Cc1ncc(-c2c(-c3ccc(Oc4nccc(C)n4)cc3)c3c(N)ncnc3n2C)c(C)n1 [Example 1062]	1 to 100 µM
C=C(C)C(=O)Nc1ccc(-c2c(C3=CC[C@H](C(=O)N4CCC[C@H]4C4CC4)CC3)c3c(N)ncnc3n2C)cc1 [Example 1059]	1 to 100 µM
C=CS(=O)(=O)N1CC[C@@H](c2c(-c3ccc(C(=O)N4CCCC4)cc3)c3c(N)ncnc3n2C)C1 (single isomer, unassigned) [Example 864]	0.1 to 0.25 µM
C=C(C)C(=O)Nc1ccc(-c2cn3ncnc(N)c3c2-c2ccc(C(=O)N3CCCC3)cc2)cc1 [Example 825]	≤ 0.1 µM
C=CC(=O)Nc1ccc(-c2c(-c3ccc(C(=O)NC4CCC4)c(OC)c3)c3c(N)ncnc3n2C)cc1 [Example 1074]	≤ 0.1 µM
C=C(C)C(=O)Nc1ccc(-c2c(C3=CC[C@H](C(=O)N4CCC[C@H]4C)CC3)c3c(N)ncnc3n2C)cc1 [Example 1006]	0.25 to 1 µM
Cn1c(C2CCN(C#N)C2)c(-c2ccc(C(=O)N3CCCC3)cc2)c2c(N)ncnc21 (stereo not shown) [Example 858]	≤ 0.1 µM
C=C(C)C(=O)Nc1ccc(-c2c(C3=CC[C@H](C(=O)N4CCCC4)CC3)c3c(N)ncnc3n2C)c(C)c1 (single isomer, unassigned) [Example 1034]	≤ 0.1 µM
C=CC(=O)Nc1ccc(-c2c(-c3ccc(Oc4cccc(C)n4)cc3)c3c(N)ncnn3c2CO)cc1 [Example 835]	1 to 100 µM
C=C(C)C(=O)Nc1ccc(-c2[nH]c3cncnc3c2-c2ccc(Oc3cccc(C)n3)cc2)cc1 [Example 831]	0.1 to 0.25 µM
Cc1ccnc(Oc2ccc(-c3c(C4=CCN(C(=O)[C@@H]5CO5)C4)n(C)c4ncnc(N)c34)cc2)n1 (single isomer, unassigned) [Example 909]	1 to 100 µM
C=C1C(=O)N(c2ccc(-c3c(-c4ccc(Oc5nccc(C)n5)cc4)c4c(N)ncnc4n3C)cc2)C[C@H]1C [Example 1135]	0.1 to 0.25 µM

Second part, the molecule after the results:

IC50	Compound
≤ 0.1 µM	C#Cc1ncc(-c2c(-c3ccc(Oc4nccc(C)n4)cc3)c3c(N)ncnc3n2C)c(C)c1F [Example 1164]
≤ 0.1 µM	C#Cc1ccc2c(n1)CCCn1c-2c(-c2ccc(Oc3nccc(C)n3)c(F)c2)c2c(N)ncnc21 [Example 1443]
1 to 100 µM	C#Cc1ncc(-c2c(-c3ccc(C(=O)N4CCC[C@H]4C#C)cc3)c3c(N)ncnc3n2C)c(C)n1 [Example 1184]
≤ 0.1 µM	C#Cc1cc(F)c(-c2c(-c3ccc(Oc4nccc(C)n4)c(F)c3)c3c(N)ncnc3n2C)cn1 [Example 1198]
≤ 0.1 µM	C#Cc1cc(C)c(-c2c(C3=CC[C@@H](C(=O)N4CCC[C@H]4C)CC3)c3c(N)ncnc3n2C)c(F)n1 [Example 1347]
1 to 100 µM	C=C(C)C(=O)Nc1ccc(-c2c(-c3ccc(NC(=O)OCC)nc3)c3c(N)ncnc3n2C)cc1 [Example 1303]
0.1 to 0.25 µM	C#Cc1cc(C)c(-c2c(C3=CC[C@]4(CC3)Cc3ccc(C)nc3O4)c3c(N)ncnc3n2C)cn1 [Example 1399]
≤ 0.1 µM	C#Cc1cc(C)c(-c2c(C3=CC[C@@H](C(=O)N4CCC[C@H]4C#N)CC3)c3c(N)ncnc3n2C)cn1 [Example 1252]
1 to 100 µM	C=C(C)C(=O)Nc1ccc(-c2c(-c3ccc4nn[nH]c4c3)c3c(N)ncnc3n2C)cc1 [Example 1302]
1 to 100 µM	C=C(C)C(=O)Nc1ccc(-c2c(-c3ccc4nc[nH]c4c3)c3c(N)ncnc3n2C)cc1 [Example 1294]
1 to 100 µM	C#Cc1cc(-c2c(-c3ccc(Oc4nccc(C)n4)cc3)c3c(N)ncnc3n2C)n(C)n1 [Example 1236]

Same assay, conditions: SNU-16 cells

IC50	Compound
≤ 0.1 µM	C#Cc1cc(C)c(-c2c(C3=CC[C@H](C(=O)N4CCC[C@H]4C)CC3)c3c(N)ncnc3n2C)c(F)n1 (atropisomer, axis not shown) [Example 1348]
0.25 to 1 µM	C=C(C)C(=O)Nc1ccc(-c2c(C3=CC[C@@H](C(=O)N4CCC[C@]45CCOC5)CC3)c3c(N)ncnc3n2C)cc1 (single isomer, unassigned) [Example 961]
0.25 to 1 µM	C=C(C)C(=O)Nc1ccc(-c2c(C3=CC[C@H](C(=O)N4CCC[C@@]45CCOC5)CC3)c3c(N)ncnc3n2C)cc1 (single isomer, unassigned) [Example 955]

The molecules below were run against FGFR2 (Homo sapiens (Human), UniProt P21802) (assay: Biochemical FGFR2 Caliper assay). Details: not given.
Sequence of FGFR2 (P21802 22-821): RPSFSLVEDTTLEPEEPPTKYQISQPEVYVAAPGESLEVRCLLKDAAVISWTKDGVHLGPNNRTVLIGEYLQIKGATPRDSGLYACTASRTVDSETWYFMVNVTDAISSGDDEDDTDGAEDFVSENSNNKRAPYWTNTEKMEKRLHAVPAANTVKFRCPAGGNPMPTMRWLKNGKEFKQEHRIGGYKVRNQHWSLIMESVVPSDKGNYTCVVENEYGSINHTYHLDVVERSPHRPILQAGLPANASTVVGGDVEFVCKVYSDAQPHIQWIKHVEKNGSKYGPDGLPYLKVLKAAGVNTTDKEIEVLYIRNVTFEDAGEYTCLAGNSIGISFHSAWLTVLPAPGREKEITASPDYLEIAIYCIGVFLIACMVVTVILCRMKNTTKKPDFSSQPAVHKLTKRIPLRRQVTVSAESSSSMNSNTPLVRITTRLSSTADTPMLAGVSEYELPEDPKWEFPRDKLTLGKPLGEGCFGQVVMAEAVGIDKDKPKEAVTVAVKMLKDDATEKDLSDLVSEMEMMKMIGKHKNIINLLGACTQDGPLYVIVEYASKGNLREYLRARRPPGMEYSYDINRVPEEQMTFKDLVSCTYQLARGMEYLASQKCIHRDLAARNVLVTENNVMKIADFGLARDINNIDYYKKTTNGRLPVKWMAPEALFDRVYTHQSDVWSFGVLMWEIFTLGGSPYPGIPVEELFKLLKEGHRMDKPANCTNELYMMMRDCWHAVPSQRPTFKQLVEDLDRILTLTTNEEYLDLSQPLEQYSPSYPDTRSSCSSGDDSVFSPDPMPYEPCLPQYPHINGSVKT

Compound	IC50
C#Cc1cc(C)c(-c2[nH]c3ncnc(N)c3c2-c2ccc(Oc3nccc(C)n3)cc2)cn1 [Example 1130]	0.25 to 1 µM
C=C(C)C(=O)Nc1ccc(-c2c(C3=CC[C@@H](C(=O)N4CCC[C@H]4COC)CC3)c3c(N)ncnc3n2C)cc1 (single isomer, unassigned) [Example 981]	0.25 to 1 µM
CC#Cc1ncc(-c2c(-c3ccc(Oc4nccc(C)n4)cc3)c3c(N)ncnc3n2C)cn1 [Example 1070]	< 0.1 µM
C#Cc1ncc(-c2c(-c3ccc(Oc4nccc(C)n4)cc3)c3c(N)ncnc3n2C)c(C)n1 [Example 1062]	1 to 100 µM
C=C(C)C(=O)Nc1ccc(-c2c(C3=CC[C@H](C(=O)N4CCC[C@H]4C4CC4)CC3)c3c(N)ncnc3n2C)cc1 [Example 1059]	1 to 100 µM
C=CS(=O)(=O)N1CC[C@@H](c2c(-c3ccc(C(=O)N4CCCC4)cc3)c3c(N)ncnc3n2C)C1 (single isomer, unassigned) [Example 864]	< 0.1 µM
C=C(C)C(=O)Nc1ccc(-c2cn3ncnc(N)c3c2-c2ccc(C(=O)N3CCCC3)cc2)cc1 [Example 825]	0.1 to 0.25 µM
C=CC(=O)Nc1ccc(-c2c(-c3ccc(C(=O)NC4CCC4)c(OC)c3)c3c(N)ncnc3n2C)cc1 [Example 1074]	< 0.1 µM
C=C(C)C(=O)Nc1ccc(-c2c(C3=CC[C@@H](C(=O)N4CCC[C@]45CCOC5)CC3)c3c(N)ncnc3n2C)cc1 (single isomer, unassigned) [Example 961]	1 to 100 µM
C=C(C)C(=O)Nc1ccc(-c2c(C3=CC[C@H](C(=O)N4CCC[C@H]4C)CC3)c3c(N)ncnc3n2C)cc1 [Example 1006]	0.25 to 1 µM
Cn1c(C2CCN(C#N)C2)c(-c2ccc(C(=O)N3CCCC3)cc2)c2c(N)ncnc21 (stereo not shown) [Example 858]	< 0.1 µM
C=C(C)C(=O)Nc1ccc(-c2c(C3=CC[C@H](C(=O)N4CCC[C@@]45CCOC5)CC3)c3c(N)ncnc3n2C)cc1 (single isomer, unassigned) [Example 955]	1 to 100 µM
C=C(C)C(=O)Nc1ccc(-c2c(C3=CC[C@H](C(=O)N4CCCC4)CC3)c3c(N)ncnc3n2C)c(C)c1 (single isomer, unassigned) [Example 1034]	0.1 to 0.25 µM
C=CC(=O)Nc1ccc(-c2c(-c3ccc(Oc4cccc(C)n4)cc3)c3c(N)ncnn3c2CO)cc1 [Example 835]	1 to 100 µM
C=C(C)C(=O)Nc1ccc(-c2[nH]c3cncnc3c2-c2ccc(Oc3cccc(C)n3)cc2)cc1 [Example 831]	< 0.1 µM
Cc1ccnc(Oc2ccc(-c3c(C4=CCN(C(=O)[C@@H]5CO5)C4)n(C)c4ncnc(N)c34)cc2)n1 (single isomer, unassigned) [Example 909]	1 to 100 µM
C=C1C(=O)N(c2ccc(-c3c(-c4ccc(Oc5nccc(C)n5)cc4)c4c(N)ncnc4n3C)cc2)C[C@H]1C [Example 1135]	0.25 to 1 µM

Further lines, results first:

IC50	Compound
0.1 to 0.25 µM	C#Cc1cc(C)c(-c2c(C3=CC[C@H](C(=O)N4CCC[C@H]4C)CC3)c3c(N)ncnc3n2C)c(F)n1 (atropisomer, axis not shown) [Example 1348]
< 0.1 µM	C#Cc1ncc(-c2c(-c3ccc(Oc4nccc(C)n4)cc3)c3c(N)ncnc3n2C)c(C)c1F [Example 1164]
0.1 to 0.25 µM	C#Cc1ccc2c(n1)CCCn1c-2c(-c2ccc(Oc3nccc(C)n3)c(F)c2)c2c(N)ncnc21 [Example 1443]
1 to 100 µM	C#Cc1ncc(-c2c(-c3ccc(C(=O)N4CCC[C@H]4C#C)cc3)c3c(N)ncnc3n2C)c(C)n1 [Example 1184]
< 0.1 µM	C#Cc1cc(F)c(-c2c(-c3ccc(Oc4nccc(C)n4)c(F)c3)c3c(N)ncnc3n2C)cn1 [Example 1198]
< 0.1 µM	C#Cc1cc(C)c(-c2c(C3=CC[C@@H](C(=O)N4CCC[C@H]4C)CC3)c3c(N)ncnc3n2C)c(F)n1 [Example 1347]
1 to 100 µM	C=C(C)C(=O)Nc1ccc(-c2c(-c3ccc(NC(=O)OCC)nc3)c3c(N)ncnc3n2C)cc1 [Example 1303]
< 0.1 µM	C#Cc1cc(C)c(-c2c(C3=CC[C@]4(CC3)Cc3ccc(C)nc3O4)c3c(N)ncnc3n2C)cn1 [Example 1399]
< 0.1 µM	C#Cc1cc(C)c(-c2c(C3=CC[C@@H](C(=O)N4CCC[C@H]4C#N)CC3)c3c(N)ncnc3n2C)cn1 [Example 1252]
1 to 100 µM	C=C(C)C(=O)Nc1ccc(-c2c(-c3ccc4nn[nH]c4c3)c3c(N)ncnc3n2C)cc1 [Example 1302]
0.25 to 1 µM	C=C(C)C(=O)Nc1ccc(-c2c(-c3ccc4nc[nH]c4c3)c3c(N)ncnc3n2C)cc1 [Example 1294]
1 to 100 µM	C#Cc1cc(-c2c(-c3ccc(Oc4nccc(C)n4)cc3)c3c(N)ncnc3n2C)n(C)n1 [Example 1236]
